Publication PMC9279378, “Mode of action of fluopyram in plant-parasitic nematodes” (Scientific Reports, 2022)

How the values were obtained:
Conditions in all cases: pH 7.2; 20 µM decylubiquinone, 100 µM DCPIP, 0.33% succinate, 1 µM antimycin, 4% DMSO
[1] = biological target: T1, C. elegans SDH (mitochondrial complex II) (Caenorhabditis elegans, UniProt O62215+P41956+Q09545); assay: succinate:ubiquinone reductase assay, DCPIP reduction at […] nm, mitochondrial protein; type: biochemical
T1 construct: gene sdhb-1; native complex II in mitochondrial preparation; wild-type strain N2 named for cultures, not explicitly for the mitochondria; with Succinate dehydrogenase [ubiquinone] flavoprotein subunit, mitochondrial

[2] = biological target: T2, SDH (mitochondrial complex II) of earthworm; assay: as above; type: biochemical, Eisenia andrei
T2 construct: gene SDHB; native complex II in mitochondrial preparation from earthworm; with Succinate dehydrogenase [ubiquinone] flavoprotein subunit, mitochondrial

[3] = biological target: T3, SDH (mitochondrial complex II) of rat (Rattus norvegicus, UniProt P21913+Q641Z9+Q6PCT8)
T3 construct: gene Sdhb
T3 sequence (P21913 31-282): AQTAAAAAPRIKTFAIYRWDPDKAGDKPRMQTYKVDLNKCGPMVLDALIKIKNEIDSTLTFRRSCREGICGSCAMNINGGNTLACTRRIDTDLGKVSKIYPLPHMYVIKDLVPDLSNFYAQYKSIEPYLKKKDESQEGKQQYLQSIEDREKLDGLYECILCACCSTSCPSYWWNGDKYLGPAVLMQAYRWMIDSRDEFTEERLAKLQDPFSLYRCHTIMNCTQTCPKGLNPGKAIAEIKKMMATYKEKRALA
T3 sequence (Q641Z9 30-169): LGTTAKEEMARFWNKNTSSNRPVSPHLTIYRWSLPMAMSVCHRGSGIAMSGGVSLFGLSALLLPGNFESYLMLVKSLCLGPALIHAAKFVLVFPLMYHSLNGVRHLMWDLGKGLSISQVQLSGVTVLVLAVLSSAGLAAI
T3 sequence (Q6PCT8 57-159): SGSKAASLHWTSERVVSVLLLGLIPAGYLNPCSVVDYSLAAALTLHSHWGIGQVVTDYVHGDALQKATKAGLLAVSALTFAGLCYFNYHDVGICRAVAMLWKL
T3 sequence (Q920L2 35-656 partner): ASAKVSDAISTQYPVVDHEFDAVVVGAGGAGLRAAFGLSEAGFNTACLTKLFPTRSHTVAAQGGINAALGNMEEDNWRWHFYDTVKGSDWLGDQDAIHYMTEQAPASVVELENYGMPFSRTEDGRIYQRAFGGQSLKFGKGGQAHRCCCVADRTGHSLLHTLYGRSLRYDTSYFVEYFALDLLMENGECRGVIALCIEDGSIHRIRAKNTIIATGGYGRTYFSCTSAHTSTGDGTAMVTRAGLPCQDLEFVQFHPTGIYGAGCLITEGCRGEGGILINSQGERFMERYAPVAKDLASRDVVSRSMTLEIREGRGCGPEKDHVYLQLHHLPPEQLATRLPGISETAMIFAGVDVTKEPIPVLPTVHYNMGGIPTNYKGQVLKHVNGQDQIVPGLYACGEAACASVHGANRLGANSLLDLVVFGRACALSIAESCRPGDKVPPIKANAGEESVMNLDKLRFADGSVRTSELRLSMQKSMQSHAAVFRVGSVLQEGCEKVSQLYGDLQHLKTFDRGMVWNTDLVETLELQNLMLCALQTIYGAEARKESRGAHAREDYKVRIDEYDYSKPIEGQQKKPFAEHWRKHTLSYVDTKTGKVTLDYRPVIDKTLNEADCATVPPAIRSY

T1 sequence (Q09545 36-298): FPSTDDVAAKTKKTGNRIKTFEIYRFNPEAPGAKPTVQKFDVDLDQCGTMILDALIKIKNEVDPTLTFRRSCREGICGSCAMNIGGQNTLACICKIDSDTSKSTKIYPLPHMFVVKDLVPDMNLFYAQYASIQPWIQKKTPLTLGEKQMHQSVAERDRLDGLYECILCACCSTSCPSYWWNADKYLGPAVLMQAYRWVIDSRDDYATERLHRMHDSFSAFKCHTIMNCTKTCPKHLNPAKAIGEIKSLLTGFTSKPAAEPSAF
T1 sequence (P41956 31-182): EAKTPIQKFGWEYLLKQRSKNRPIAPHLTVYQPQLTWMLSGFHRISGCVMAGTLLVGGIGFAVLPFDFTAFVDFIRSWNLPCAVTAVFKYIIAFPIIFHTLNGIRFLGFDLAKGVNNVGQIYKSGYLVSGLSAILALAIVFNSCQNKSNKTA
T1 sequence (O62215 32-145): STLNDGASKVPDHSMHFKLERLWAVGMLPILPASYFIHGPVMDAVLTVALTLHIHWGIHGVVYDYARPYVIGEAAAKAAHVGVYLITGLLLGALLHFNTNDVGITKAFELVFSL
T1 sequence (Q09508 32-646 partner): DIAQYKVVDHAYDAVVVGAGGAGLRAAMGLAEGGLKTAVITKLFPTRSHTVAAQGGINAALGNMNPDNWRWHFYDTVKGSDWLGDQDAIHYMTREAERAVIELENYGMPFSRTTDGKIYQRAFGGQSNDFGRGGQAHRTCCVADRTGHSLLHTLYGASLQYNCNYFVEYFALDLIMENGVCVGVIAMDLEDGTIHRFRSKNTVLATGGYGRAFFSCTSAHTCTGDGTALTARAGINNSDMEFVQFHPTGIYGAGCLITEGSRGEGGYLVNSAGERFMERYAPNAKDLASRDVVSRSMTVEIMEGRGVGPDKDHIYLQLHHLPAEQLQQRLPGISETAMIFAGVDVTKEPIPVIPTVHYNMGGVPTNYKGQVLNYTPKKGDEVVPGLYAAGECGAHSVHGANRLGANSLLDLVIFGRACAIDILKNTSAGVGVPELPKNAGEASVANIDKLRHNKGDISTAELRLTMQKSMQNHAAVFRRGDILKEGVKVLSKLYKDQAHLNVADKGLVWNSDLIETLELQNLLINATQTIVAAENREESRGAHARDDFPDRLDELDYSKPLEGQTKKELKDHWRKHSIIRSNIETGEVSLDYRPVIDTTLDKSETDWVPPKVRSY

Row | Compound | pIC50 [1] | pIC50 [2] | pIC50 [3]
1 | COc1[nH]c(=O)c(C(=O)[C@@H](C)C[C@H](C)[C@@H](Cl)CCl)c(O)c1OC [Atpenin A5] | 7.7 | 8.1 | 8.2
2 | O=C(NCCc1ncc(C(F)(F)F)cc1Cl)c1ccccc1C(F)(F)F [fluopyram] | 8.5 | – | –
3 | CC(C)Oc1cccc(NC(=O)c2ccccc2C(F)(F)F)c1 [flutolanil] | 6.5 | 6.0 | –
